Measured values from US6713506B2, “Tea polyphenol esters and analogs thereof for cancer prevention and treatment” (University of South Florida, priority 2000, dated 2004).
Non-standard residues stand in square brackets, D forms with d. Residues, ends and D or L forms follow the SMILES beside them. *: point of attachment. Nle = CCCC[C@H](N)C(=O)O; Nva = CCC[C@H](N)C(=O)O; Cbz = O=C(OCc1ccccc1)*

Assays:
[1] = target: chymotrypsin-like activity of purified 20S proteasome (UniProt Q9P992); format: biochemical; settings: for IC50: read-out: IC50 towards the chymotrypsin-like activity of purified 20S proteasome
Procedure: (§1) FIG. 8. […] A). […] Initially, 0.5 μg of purified 20S proteasome is incubated with 20 μM of a fluorogenic peptide substrate, Suc-Leu-Leu-Val-Tyr-AMC, for 30 min at 37° C. in 100 μl of assay buffer (20 mM Tris-HCl, pH 8.0) with various concentrations of tannic acid. After incubation, the reaction mixture is diluted to 200 μl with the assay buffer, followed by measurement of the hydrolyzed 7-amido-4-methyl-coumarin (AMC) groups using a fluorometer with an excitation filter of 380 nm and an emission filter of 460 nm. B). […] Tannic acid (0.3 μg/ml) and Glucose (180 μg/ml) are used in the proteasome activity assay as described above. C). […] Purified calpain I (3 μg) protein is incubated with 40 μM of a fluorogenic peptide substrate, Suc-Leu-Tyr-AMC, for 30 min at 37° C. in 100 μl of assay buffer (50 mM Tris-HCl, pH 7.5, containing 50 mM NaCl, 1 mM EDTA, 1 mM EGTA, 5 mM β-Mercaptoethanol, 5 mM CaCl2, and 0.1% CHAPS) in the absence (control) or presence of 5 μg/ml of tannic acid or 0.18 μg/ml of calpeptin (calpain inhibitor).
(§2) Inhibition of the proteasome activity in vitro by tea polyphenols—To measure the 20S proteasome chymotrypsin-like activity, 0.5 μg of a purified 20S proteasome (Calbiochem) is incubated with 20 μM of a fluorogenic peptide substrate, Suc-Leu-Leu-Val-Tyr-AMC (Calbiochem), for 30 min at 37° C. in 100 μl of assay buffer (20 mM Tris-HCl, pH 8.0), with or without tea polyphenols (purity >95%; Sigma) or tea extract. After incubation, the reaction mixture is diluted to 200 μl with the assay buffer, followed by measurement of the hydrolyzed 7-amido-4-methyl-coumarin (AMC) groups using a VersaFluor™ Fluorometer with an excitation filter of 380 nm and an emission filter of 460 nm (Bio-Rad).

purified calpain I = target: T1, purified calpain I (Homo sapiens, UniProt P07384); test: Calpain I activity assay; format: biochemical; settings: FIG. 3B: EGCG 10 μM, calpeptin 1 μM
T1 construct: 3 μg purified calpain I (Human Erythrocytes, Calbiochem) is incubated; purchased Calbiochem; host or cells: human erythrocytes (tissue-purified)
T1 sequence (P07384 1-714): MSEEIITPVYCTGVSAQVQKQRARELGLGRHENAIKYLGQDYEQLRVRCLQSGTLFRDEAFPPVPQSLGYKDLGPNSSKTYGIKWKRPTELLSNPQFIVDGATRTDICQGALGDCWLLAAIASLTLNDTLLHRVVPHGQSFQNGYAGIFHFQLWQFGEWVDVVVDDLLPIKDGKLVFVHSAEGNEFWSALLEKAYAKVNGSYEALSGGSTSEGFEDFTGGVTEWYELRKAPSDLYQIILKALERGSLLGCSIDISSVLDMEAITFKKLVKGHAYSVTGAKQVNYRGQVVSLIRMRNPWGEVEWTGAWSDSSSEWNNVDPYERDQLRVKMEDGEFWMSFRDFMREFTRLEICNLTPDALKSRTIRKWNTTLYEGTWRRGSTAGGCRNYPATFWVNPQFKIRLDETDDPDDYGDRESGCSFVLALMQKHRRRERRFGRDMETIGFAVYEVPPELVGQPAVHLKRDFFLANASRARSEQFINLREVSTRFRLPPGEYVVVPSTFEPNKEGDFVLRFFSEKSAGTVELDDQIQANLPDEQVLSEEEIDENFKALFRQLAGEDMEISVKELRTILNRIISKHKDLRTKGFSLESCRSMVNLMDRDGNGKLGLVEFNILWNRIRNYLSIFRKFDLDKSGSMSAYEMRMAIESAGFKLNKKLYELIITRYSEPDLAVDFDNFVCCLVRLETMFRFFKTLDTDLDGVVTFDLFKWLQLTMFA
T1 sequence (P04632 1-268 partner): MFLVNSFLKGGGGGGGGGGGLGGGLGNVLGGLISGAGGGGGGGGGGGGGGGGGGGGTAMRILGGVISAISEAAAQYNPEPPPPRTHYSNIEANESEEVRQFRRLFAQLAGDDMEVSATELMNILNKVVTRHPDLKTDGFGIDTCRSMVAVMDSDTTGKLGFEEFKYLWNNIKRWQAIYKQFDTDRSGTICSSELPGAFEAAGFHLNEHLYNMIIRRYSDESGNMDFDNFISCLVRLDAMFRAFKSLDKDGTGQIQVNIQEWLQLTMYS
Procedure: as §1

[2] = target: T2, proteasome chymotrypsin-like activity in living Jurkat cells (Homo sapiens, UniProt P28074); test: Proteasome chymotrypsin-like activity in living Jurkat T cells; format: cell-based; settings: 10 μM, living Jurkat cells
T2 construct: endogenous in cells; host or cells: Jurkat T cells (whole cell extract or intact cells)
Procedure: FIG. 10. Inhibition of the chymotrypsin-like activity by tannic acid in intact Jurkat T cells. Intact Jurkat T cells (1×10^5 cells/ml/well) are cultured in 24-well plates. These cells are first incubated for 12 h with various concentrations of tannic acid as indicated, followed by an additional 2 h-incubation with a fluorogenic peptide substrate, Suc-Leu-Leu-Val-Tyr-AMC for the chymotrypsin-like activity. Then, cell medium (200 μl per sample) is collected and used for measurement of free AMCs.
Inhibition of the proteasome activity in living cells by tea polyphenols—To measure inhibition of the chymotrypsin-like activity in living tumor cells, Jurkat T (1×10^5 cells/ml/well), MCF7 or PC-3 cells (1×10^4 cells/ml/well) are cultured in 24-well plates. These cells are first incubated for 12 h with various concentrations of EGCG, EGC, β-lactone or LLnL, followed by an additional 2 h-incubation with fluorogenic peptide substrates, Suc-Leu-Leu-Val-Tyr-AMC for the chymotrypsin-like activity and Z-Gly-Gly-Arg-AMC for the trypsin-like activity. After that, cell medium (200 μl per sample) is collected and used for measurement of free AMCs.

[3] = target: T3, proteasome activity in MCF-7 cells (Homo sapiens, UniProt P28072+P28074+Q99436); test: Proteasome activity in lysate of pretreated MCF-7 cells; format: cell-based; settings: MCF-7 cells pretreated with inhibitor
T3 construct: endogenous in cells; host or cells: MCF-7 cells, pretreated and then lysed
T3 sequence (P28074 60-263): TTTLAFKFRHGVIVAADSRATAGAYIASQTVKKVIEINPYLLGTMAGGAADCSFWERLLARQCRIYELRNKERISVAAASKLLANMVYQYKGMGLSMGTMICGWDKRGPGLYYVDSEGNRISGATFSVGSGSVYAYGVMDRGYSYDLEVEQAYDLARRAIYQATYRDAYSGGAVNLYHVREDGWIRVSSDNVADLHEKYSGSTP
T3 sequence (P28072 1-239): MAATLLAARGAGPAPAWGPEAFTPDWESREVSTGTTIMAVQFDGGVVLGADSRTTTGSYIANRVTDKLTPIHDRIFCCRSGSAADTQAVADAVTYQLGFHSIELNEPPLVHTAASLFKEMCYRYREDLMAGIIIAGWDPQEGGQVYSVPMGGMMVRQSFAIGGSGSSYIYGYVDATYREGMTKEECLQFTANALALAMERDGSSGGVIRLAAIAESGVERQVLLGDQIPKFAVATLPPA
T3 sequence (Q99436 44-277): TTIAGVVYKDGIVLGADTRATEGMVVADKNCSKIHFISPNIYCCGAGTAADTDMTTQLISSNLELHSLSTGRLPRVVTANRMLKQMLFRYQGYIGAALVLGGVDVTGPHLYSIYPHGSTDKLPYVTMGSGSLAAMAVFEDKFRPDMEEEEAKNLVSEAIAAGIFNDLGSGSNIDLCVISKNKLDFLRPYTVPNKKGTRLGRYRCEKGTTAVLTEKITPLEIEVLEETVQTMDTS
Procedure: (a) The selected cell lines are treated with EGCG (vs. EGC) or ECG (vs. EC) at various concentrations (0-80 μM) for up to 96 h, followed by preparation of protein extracts and measurement of the proteasomal chymotrypsin-like, trypsin-like and PGPH activities and the calpain activity in cell-free assay. […] Thus, a protein extract of breast cancer cells pretreated with EGCG also contains decreased levels of the proteasome activity.

[4] = target: chymotrypsin-like activity of purified 20S proteasome; format: biochemical; settings: read-out: IC50 towards the chymotrypsin-like activity of purified 20S proteasome
Procedure: as §1, §2

[5] = target: T4, caspase-3-like activity in Jurkat T cell extract (Homo sapiens, UniProt P42574); test: Caspase-3 activity assay in Jurkat T cell extract; format: biochemical
T4 construct: endogenous in cells; host or cells: Jurkat T cell whole cell extract
T4 sequence (P42574 29-175 limits assumed): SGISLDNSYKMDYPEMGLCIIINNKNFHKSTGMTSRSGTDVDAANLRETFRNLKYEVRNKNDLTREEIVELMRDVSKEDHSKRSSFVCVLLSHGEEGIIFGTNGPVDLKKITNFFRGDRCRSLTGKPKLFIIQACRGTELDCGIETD
T4 sequence (P42574 176-277 limits assumed): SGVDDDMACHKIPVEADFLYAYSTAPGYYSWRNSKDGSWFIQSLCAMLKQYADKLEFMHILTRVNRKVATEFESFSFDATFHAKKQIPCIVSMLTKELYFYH
Procedure: Calpain I and Caspase-3 activities assays with tea polyphenols—To measure calpain I activity, 3 μg purified calpain I (Human Erythrocytes, Calbiochem) is incubated with 40 μM of a fluorogenic peptide substrate, Suc-Leu-Tyr-AMC (Calbiochem), for 30 min at 37° C. in 100 μl of assay buffer (50 mM Tris-HCl, pH 7.5, containing 50 mM NaCl, 1 mM EDTA, 1 mM EGTA, 5 mM β-Mercaptoethanol, 5 mM CaCl2, and 0.1% CHAPS), with or without EGCG. After incubation, the reaction mixture is diluted to 200 μl with the assay buffer, and the hydrolyzed AMCs are quantified as described above. For caspase-3 activity assay, the whole cell extract (3.5 μg) from Jurkat T cells is incubated for 90 min at 37° C. with 20 μM of a fluorogenic peptide substrate, Ac-Asp-Glu-Val-Asp-AMC. These procedures were similar to those of the proteasome assay with cell free extracts described above.

Sequence of chymotrypsin-like activity of purified 20S proteasome (UniProt Q9P992) (Q9P992 whole entry): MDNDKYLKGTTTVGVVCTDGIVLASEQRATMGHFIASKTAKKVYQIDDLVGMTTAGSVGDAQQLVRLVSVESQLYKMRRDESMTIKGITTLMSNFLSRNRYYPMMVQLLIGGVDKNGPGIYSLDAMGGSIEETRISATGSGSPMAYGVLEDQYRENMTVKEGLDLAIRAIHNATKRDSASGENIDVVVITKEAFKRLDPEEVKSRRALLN
Sequence of chymotrypsin-like activity of purified 20S proteasome (Q9P992 whole entry): as above

## Oc1cc(O)c2c(c1)OC(c1ccc(O)c(O)c1)C(O)C2 (single isomer, unassigned; (-)) [C, (−)-catechin]
[1]
  inhibition of purified 20S proteasome chymotrypsin-like activity (in words): do not inhibit the proteasome activity

## CCCC[C@@H](C=O)NC(=O)[C@H](CC(C)C)NC(=O)OCc1ccccc1 [Calpeptin, calpeptin, reference compound]
Purified calpain I
  inhibition of purified calpain activity (in words): able to inhibit

## Oc1cc(O)c2c(c1)O[C@H](c1cc(O)c(O)c(O)c1)[C@@H](O)C2 [GC, (−)-gallocatechin]
[1]
  inhibition of purified 20S proteasome chymotrypsin-like activity (in words): do not inhibit the proteasome activity

## CCCC[C@@H](C=O)NC(=O)[C@H](CC(C)C)NC(=O)[C@H](CC(C)C)NC(C)=O [LLnL, reference compound] (Ac-Leu-Leu-[Nle]-aldehyde)
[2]
  inhibition of chymotrypsin-like activity: 40%

## CCC[C@@H](C=O)NC(=O)[C@H](CC(C)C)NC(=O)[C@H](CC(C)C)NC(=O)OCc1ccccc1 [LLnV] (Cbz-Leu-Leu-[Nva]-aldehyde)
[3]
  proteasome activity in lysate of pretreated cells: decreased levels of proteasome activity

## O=C(O)c1cc(O)c(O)c(O)c1 [gallic acid, reference compound]
[1]; ratio of IC50 to EGCG
  fold less potent than EGCG: 83,000 fold
[4]
  IC50: 7100 µM

## COC(=O)c1cc(O)c(O)c(O)c1 [methyl gallate, reference compound]
[1]
  inhibition of purified 20S proteasome chymotrypsin-like activity (in words): more potent than gallate

## CC(C)[C@H](O)[C@@]12NC(=O)[C@H](C)[C@@H]1OC2=O [β-lactone, clastolactacystin β-lactone, reference compound]
[1]
  IC50: 0.6 µM
[2]
  inhibition of chymotrypsin-like activity: 20%

## (−)-catechin-3-gallate [CG]
[1]
  IC50: 0.124 µM

## (−)-epicatechin-3-gallate [ECG]
[1]
  IC50: 0.194 µM

## (−)-gallocatechin-3-gallate [GCG]
[1]
  IC50: 0.187 µM

## Ac-DEVD-CMK [reference compound]
[5]
  inhibition of caspase-3-like activity (in words): blocked
